pIC50: −log10 of the molar value.
Columns and labels:
Type in all cases: cell-based
[1] = system: primary human whole blood cells; test: Human whole blood LPS-induced cytokine release; conditions: for pIC50: Whole blood cell, LPS, 24 hours, read-out: IC50, LPS-induced TNFα release; for Max. eff., LPS-induced TNFα repression: prednisolone = 100%
From the text: Hereafter, supernatant was carefully collected and tested at the most optimal dilution (predetermined by a titration study on control samples) in a human TNFα-specific ELISA (for the LPS stimulated samples) or in a human IL-5-specific or human G-CSF-specific ELISA (for the PMA/anti-CD28 stimulated samples) (Duoset, R&D systems USA).

[2] = system: human neonatal foreskin fibroblasts; test: BioMAP assay HDF3CGF; conditions: 1 μM, prednisolone = 100%
Description: Next, effects of Org 214007-0 on the cytokine release by primary human whole blood cells treated with either LPS or anti-CD28/PMA were tested. […] These assays make use of different types of primary human cells, in this case coronary artery smooth muscle cells and neonatal foreskin fibroblasts, in an inflammatory environment, [28]. […] When all repressed and induced proteins are taken into account, a relative TI value for Org 214007-0 could be deduced of 1.7 in coronary artery smooth muscle cells and of 2.2 in neonatal foreskin fiboblasts.

GR = molecular target: T1, GR (Homo sapiens, UniProt P04150); test: ChIP-Seq analysis of GR binding to DNA in THP-1 cells; parameters: endogenous in cells; host or cells: THP-1; conditions: for number of ChIP-Seq clusters compared to vehicle: THP-1, 1 μM, 1 hour
T1 sequence (P04150 1-777): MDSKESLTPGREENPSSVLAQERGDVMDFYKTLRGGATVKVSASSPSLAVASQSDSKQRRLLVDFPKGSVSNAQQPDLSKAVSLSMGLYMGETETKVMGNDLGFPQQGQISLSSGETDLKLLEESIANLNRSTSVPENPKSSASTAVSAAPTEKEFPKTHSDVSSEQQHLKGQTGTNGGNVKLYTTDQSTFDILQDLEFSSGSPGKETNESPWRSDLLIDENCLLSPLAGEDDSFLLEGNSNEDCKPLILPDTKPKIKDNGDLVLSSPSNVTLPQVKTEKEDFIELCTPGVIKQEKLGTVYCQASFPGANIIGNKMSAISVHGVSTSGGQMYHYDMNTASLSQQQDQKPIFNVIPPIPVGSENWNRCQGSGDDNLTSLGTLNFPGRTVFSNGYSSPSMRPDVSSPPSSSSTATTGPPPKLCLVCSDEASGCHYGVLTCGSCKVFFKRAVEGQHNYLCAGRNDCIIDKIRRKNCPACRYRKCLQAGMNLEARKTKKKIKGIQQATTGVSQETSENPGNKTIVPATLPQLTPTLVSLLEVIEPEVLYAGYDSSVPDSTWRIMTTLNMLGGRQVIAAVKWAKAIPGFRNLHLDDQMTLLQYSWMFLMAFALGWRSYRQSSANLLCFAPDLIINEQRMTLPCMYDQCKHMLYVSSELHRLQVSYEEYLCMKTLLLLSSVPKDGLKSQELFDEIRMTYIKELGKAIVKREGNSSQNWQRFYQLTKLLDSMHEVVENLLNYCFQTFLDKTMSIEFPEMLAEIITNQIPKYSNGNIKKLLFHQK
Description: From the THP-1 samples that were used for gene expression analysis after 6 hours, samples were drawn after 1 hour and used for ChIP–Seq analysis at Genpathway (Carlsbad, CA). For precipitation of genomic DNA regions antibody against GR (Santa Cruz sc-8992) was used. Details are provided in SI text. The obtained amplified DNA libraries were sent to Illumina Sequencing Services (San Diego, CA) for sequencing on a Genome Analyzer II. Sequence files were analyzed with the Genomatix Genome Analyzer Workbench from Genomatix (Genomatix Software GmbH, Munich). Sequences were clustered using default parameter settings and aligned against the human genome version GRCh37/hg19. Clusters were merged using the Replicate Analysis module from the Workbench package (more detailed information in SI text).
Cells were fixed with 1% formaldehyde for 15 min and quenched with 0.125 M glycine. Chromatin was isolated by adding lysis buffer, followed by disruption with a Dounce homogenizer (cells) or motor pestle (tissue). Lysates were sonicated and the DNA sheared to an average length of 300-500 bp. Genomic DNA (Input) was prepared by treating aliquots of chromatin with RNase, proteinase K and heat for de-crosslinking, followed by ethanol precipitation. Pellets were resuspended and the resulting DNA was quantified on a NanoDrop spectrophotometer. Extrapolation to the original chromatin volume allowed quantitation of the total chromatin yield.
An aliquot of chromatin (28.5 ug) was precleared with protein A agarose beads (Invitrogen). Genomic DNA regions of interest were isolated using 4 ug antibody against GR (Santa Cruz sc-8992). Complexes were washed, eluted from the beads with SDS buffer, and subjected to RNase and proteinase K treatment. Crosslinks were reversed by incubation overnight at 65 C, and ChIP DNA was purified by phenol-chloroform extraction and ethanol precipitation.

Row | binding sites also contained within the prednisolone set (GR; non-stimulated, 2080 vs 9413 sites) [%] | SMILES | pIC50 [1] | Max. eff., LPS-induced TNFα repression [1] | Max. eff., activation of PAI-1 [2] [%] | number of ChIP-Seq clusters compared to vehicle (GR; inflammatory condition) | number of ChIP-Seq clusters compared to vehicle (GR; non-stimulated condition)
1 | 99.5 | Cc1nnsc1C(=O)N[C@H]1CCN2c3ccc(C#N)cc3[C@@H](C)c3ccccc3[C@@H]2C1 [Org 214007-0] | 7.30 | 68 (±8.7) % | 55 | 2502 | 2080
2 |  | C[C@]12C=CC(=O)C=C1CC[C@@H]1[C@@H]2[C@@H](O)C[C@@]2(C)[C@H]1CC[C@]2(O)C(=O)CO [prednisolone, reference compound] | 7.57 | 100% | 100 | 3471 | 9413
